# Molecular target: T1, GTPBP6 (Homo sapiens, UniProt O43824)
# T1 construct: Δ43GTPBP6 (first 43 residues removed); 6xHis-MBP tag cleaved with TEV; expressed in E. coli BL21 (DE3) RIL; modelled residues 94-515
# T1 sequence (O43824 44-516): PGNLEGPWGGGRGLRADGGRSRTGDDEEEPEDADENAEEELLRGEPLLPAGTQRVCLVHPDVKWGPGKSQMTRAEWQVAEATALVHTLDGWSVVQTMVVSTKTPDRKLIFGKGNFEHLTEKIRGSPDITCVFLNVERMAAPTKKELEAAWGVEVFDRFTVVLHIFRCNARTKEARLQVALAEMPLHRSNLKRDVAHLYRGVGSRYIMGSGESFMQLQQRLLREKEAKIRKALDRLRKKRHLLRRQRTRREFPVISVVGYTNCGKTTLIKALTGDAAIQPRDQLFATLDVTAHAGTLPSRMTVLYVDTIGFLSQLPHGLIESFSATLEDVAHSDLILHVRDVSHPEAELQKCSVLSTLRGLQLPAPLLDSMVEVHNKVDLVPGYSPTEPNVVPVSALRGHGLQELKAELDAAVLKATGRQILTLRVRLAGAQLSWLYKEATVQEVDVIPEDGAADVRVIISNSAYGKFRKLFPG
# Assay: cryo-EM structure of GTPBP6-bound mtLSU
# Assay type: binding
# Conditions: bound in GTPase domain; 1 mM GTP and 1 mM ATP, pH 7.4, 4 °C; biogenesis intermediate at 2.6 Å and mature mtLSU at 2.7 Å
compound,measurement,value
Nc1nc2c(ncn2[C@@H]2O[C@H](COP(=O)(O)OP(=O)(O)OP(=O)(O)O)[C@@H](O)[C@H]2O)c(=O)[nH]1 [GTP],cryo-EM structure of GTPBP6-bound mtLSU,shows clear density for a bound GTP molecule

# — publication PMC8209004, “Structural basis of GTPase-mediated mitochondrial ribosome biogenesis and recycling” (Nature Communications, 2021)
